Results on seven compounds are retold here after patent publication US20160272645A1, “Heterocyclic Compounds and Methods of Use” (MEDIVATION TECHNOLOGIES, INC., priority 2013, published 2016).

One may read the IC50 as the concentration at which inhibition is half-maximal.

Experiment [1] concerns the target T1, PI3Kδ (Homo sapiens, UniProt O00329).
T1 construct: purchased Reaction Biology Corporation
Briefly: PI3Kδ kinase profiling, HTRF PIP3 displacement assay (Reaction Biology). Particulars: for inhibition at 1 µM: compound 1 μM, ATP 10 μM, read-out: PI3Kδ @ 1 μM (% Inh). In kind it is biochemical. The source says:
Compounds of the invention were profiled in a 10 dose IC50 panel against BTK and PI3Kδ, both provided by Reaction Biology Corporation.
(§1) PI3Kδ assay: The PIP3 product is detected by displacement of biotin-PIP3 from an energy transfer complex consisting of Europium labeled anti-GST monoclonal antibody, a GST-tagged pleckstrin homology (PH) domain, biotinylated PIP3 and Streptavidin-Allophycocyanin (APC). Excitation of Europium in the complex results in an energy transfer to the APC and a fluorescent emission at 665 nm. The PIP3 product formed by PI3-Kinase (h) activity displaces biotin-PIP3 from the complex resulting in a loss of energy transfer and thus a decrease in signal. This is a 3-step reaction: First, the kinase reaction with PIP2 substrate is carried out in the presence of ATP (10 μM), and the reaction is quenched with stop Solution, and then finally detect by adding Detection Mixture followed by incubation (10 min). Reaction procedure: 1) Prepare substrate in freshly prepared Reaction Buffer. 2) Deliver kinase into the substrate solution and gently mix. 3) Deliver compounds in 100% DMSO (1 μM) into the kinase reaction mixture by Acoustic technology (Echo550; nanoliter range), incubate for 10 min at RT. 4) Deliver ATP into the reaction mixture to initiate the reaction. 5) Incubate for 30 min at 30° C. 6) Quench the reaction with Stop Solution. 7) Add Detection Mixture, and incubate for overnight. 8) Measure HTRF: Ex=320 nm, ratio of Em=615 nm and Em=665 nm. The emission ratio is converted into μM PIP3 production based on PIP3 standard curves. The nonlinear regression to obtain the standard curve and IC50 values are performed using Graphpad Prism software. Assay Buffer: HEPES 50 mM (pH7.0), NaN3 0.02%, BSA 0.01%, Orthovanadate 0.1 mM, 1% DMSO. Detection buffer: HEPES 10 mM (pH7.0), BSA 0.02%, KF 0.16 M, EDTA 4 mM. Substrate: 10 μM PIP2 substrate (PI(4,5)P2).
(In general: Time-resolved FRET reads energy transfer from a long-lived donor to a nearby acceptor.)

The next experiment has as its target T2, PI3Kβ (Homo sapiens, UniProt P42338).
T2 construct: purchased Reaction Biology Corporation
Briefly: PI3K isoform profiling, PI3Kβ (PI3Kδ protocol). In kind it is biochemical. Particulars: for IC50: 10 dose IC50; for inhibition at 0.3 µM: compound 0.3 μM, read-out: PI3Kβ @ 0.3 μM (% Inh).
Source text: as §1
(§2) Compounds of the invention were profiled in a 10 dose IC50 panel against PI3Kα, PI3Kβ, and PI3Kγ kinases, provided by Reaction Biology Corporation, applied to the PI3Kδ protocol provided in Example B1.

Another experiment concerns the target T3, PI3Kγ (Homo sapiens, UniProt P48736).
T3 construct: purchased Reaction Biology Corporation
Briefly: PI3K isoform profiling, PI3Kγ (PI3Kδ protocol). As to conditions: for IC50: 10 dose IC50; for inhibition at 0.3 µM: compound 0.3 μM, read-out: PI3Kγ @ 0.3 μM (% Inh). The format is biochemical.
Source text: as §1, §2

The next experiment concerns the target T4, ITK (Homo sapiens, UniProt Q08881).
T4 construct: purchased Reaction Biology Corporation
T4 sequence (Q08881 1-620): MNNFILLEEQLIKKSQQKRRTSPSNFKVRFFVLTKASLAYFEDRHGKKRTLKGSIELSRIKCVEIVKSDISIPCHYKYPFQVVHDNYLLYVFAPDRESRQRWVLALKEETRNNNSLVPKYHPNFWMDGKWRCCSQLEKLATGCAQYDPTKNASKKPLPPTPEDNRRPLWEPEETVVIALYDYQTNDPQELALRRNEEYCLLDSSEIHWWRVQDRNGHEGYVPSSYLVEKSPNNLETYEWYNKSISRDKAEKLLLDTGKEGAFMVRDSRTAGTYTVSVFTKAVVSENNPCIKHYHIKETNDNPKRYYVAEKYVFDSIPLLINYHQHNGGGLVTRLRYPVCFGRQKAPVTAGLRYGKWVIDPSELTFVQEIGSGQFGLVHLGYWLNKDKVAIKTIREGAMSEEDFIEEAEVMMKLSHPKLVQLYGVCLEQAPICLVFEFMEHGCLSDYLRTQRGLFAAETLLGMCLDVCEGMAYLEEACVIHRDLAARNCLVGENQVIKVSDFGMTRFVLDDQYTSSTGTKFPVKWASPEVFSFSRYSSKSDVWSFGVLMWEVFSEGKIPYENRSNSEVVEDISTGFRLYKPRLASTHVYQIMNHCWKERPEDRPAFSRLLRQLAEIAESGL
Put plainly: ITK kinase profiling (BTK protocol). In kind it is biochemical. Particulars: compound 0.3 μM; read-out: ITK @ 0.3 μM (% Inh). The method, then:
BTK assay: In vitro profiling protein kinases was performed using the “HotSpot” assay platform. Briefly, specific kinase/substrate pairs along with required cofactors were prepared in reaction buffer. Compounds were prepared as 10 mM stock solutions in DMSO. Compounds were delivered into the reaction, followed 15-20 minutes later by addition of a mixture of ATP (Sigma, St. Louis Mo.) and ^33P ATP (Perkin Elmer, Waltham Mass.) to a final concentration of 10 μM. Reactions were carried out at RT for 120 min, followed by spotting of the reactions onto P81 ion exchange filter paper (Whatman Inc., Piscataway, N.J.). Unbound phosphate was removed by extensive washing of filters in 0.75% Phosphoric acid. […] ICso values and curve fits were obtained using Prism (GraphPad Software). Buffer Conditions: 20 mM Hepes (pH 7.5), 10 mM MgCl2, 1 mM EGTA, 0.02% Brij35, 0.02 mg/mL BSA, 0.1 mM Na3VO4, 2 mM DTT, 1% DMSO.
Compounds of the invention were profiled in a 10 dose IC50 panel against BMX/ETK, ITK and TEC kinases, provided by Reaction Biology Corporation, applied to the BTK protocol provided in Example B1.

Experiment [2] concerns the target T1, PI3Kδ. Briefly: PI3Kδ kinase profiling, HTRF PIP3 displacement assay (Reaction Biology). In kind it is biochemical. Particulars: ATP 10 μM; for inhibition at 0.1 µM: compound 0.1 μM, read-out: PI3Kδ @ 0.1 μM (% Inh); for inhibition at 0.01 µM: compound 0.01 μM, read-out: PI3Kδ @ 0.01 μM (% Inh).
Experiment [3] deals with CD69+B220+ cells (mouse spleen cells). Put plainly: B cell activation assay (IgD-stimulated CD69 on B220+ spleen cells, FACS). Particulars: IgD 3 μg/mL 4 h. The format is cell-based.

T3 sequence (P48736 whole entry): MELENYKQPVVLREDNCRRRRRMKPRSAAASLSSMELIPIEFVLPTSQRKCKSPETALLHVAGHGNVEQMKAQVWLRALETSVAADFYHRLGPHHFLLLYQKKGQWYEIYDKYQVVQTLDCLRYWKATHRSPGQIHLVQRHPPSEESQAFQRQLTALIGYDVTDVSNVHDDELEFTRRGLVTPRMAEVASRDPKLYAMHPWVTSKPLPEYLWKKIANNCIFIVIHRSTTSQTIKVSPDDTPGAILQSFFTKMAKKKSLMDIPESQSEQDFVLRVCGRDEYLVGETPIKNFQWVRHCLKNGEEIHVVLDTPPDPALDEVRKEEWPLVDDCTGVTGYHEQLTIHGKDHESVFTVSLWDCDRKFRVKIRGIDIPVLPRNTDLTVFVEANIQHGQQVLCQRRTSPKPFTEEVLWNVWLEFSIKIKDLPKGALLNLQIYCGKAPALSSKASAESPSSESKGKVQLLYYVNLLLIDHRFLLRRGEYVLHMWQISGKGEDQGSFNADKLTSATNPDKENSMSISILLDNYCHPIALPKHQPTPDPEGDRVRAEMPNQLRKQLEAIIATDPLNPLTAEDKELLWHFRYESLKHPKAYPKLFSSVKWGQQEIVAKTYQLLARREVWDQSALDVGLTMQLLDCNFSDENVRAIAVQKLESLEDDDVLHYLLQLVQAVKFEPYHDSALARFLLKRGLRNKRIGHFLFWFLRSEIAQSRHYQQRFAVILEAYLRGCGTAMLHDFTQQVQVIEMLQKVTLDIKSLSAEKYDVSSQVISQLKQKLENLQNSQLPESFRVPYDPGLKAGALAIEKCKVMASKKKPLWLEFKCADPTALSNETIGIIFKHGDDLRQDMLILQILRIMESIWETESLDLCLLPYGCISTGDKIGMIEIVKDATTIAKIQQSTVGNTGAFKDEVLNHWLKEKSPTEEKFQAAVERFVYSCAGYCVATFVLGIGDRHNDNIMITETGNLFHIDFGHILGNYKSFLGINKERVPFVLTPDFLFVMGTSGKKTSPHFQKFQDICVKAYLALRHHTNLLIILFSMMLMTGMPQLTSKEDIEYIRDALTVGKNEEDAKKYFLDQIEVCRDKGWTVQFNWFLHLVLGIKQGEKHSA
T2 sequence (P42338 whole entry): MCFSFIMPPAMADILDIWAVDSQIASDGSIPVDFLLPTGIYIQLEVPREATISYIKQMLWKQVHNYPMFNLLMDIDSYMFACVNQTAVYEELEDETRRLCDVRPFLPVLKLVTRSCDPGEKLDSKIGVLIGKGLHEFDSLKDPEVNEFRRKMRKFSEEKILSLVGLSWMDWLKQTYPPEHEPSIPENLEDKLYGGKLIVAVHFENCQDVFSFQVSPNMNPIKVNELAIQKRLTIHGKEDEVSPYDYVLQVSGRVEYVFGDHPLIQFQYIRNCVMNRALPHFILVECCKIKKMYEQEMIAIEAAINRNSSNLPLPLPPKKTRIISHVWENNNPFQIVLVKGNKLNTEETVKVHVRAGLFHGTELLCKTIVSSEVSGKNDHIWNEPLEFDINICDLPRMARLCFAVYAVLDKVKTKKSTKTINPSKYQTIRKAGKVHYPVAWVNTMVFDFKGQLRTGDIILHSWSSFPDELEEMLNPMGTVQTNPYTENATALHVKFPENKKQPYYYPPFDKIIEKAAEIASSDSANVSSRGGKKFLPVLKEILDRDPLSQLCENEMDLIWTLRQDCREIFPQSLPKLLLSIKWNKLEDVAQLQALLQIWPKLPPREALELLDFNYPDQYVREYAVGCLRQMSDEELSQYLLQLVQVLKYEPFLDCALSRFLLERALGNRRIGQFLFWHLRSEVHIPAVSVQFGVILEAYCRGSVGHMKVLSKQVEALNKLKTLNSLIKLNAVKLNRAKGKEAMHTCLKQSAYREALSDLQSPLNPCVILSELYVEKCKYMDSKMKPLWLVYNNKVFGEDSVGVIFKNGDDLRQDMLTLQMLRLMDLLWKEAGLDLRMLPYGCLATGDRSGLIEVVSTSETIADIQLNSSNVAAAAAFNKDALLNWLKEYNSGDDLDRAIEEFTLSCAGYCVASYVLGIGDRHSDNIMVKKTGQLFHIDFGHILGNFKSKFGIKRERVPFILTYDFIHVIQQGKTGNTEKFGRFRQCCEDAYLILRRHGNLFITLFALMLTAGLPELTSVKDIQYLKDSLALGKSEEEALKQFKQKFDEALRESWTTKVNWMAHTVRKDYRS
T2 sequence (P27986 whole entry partner): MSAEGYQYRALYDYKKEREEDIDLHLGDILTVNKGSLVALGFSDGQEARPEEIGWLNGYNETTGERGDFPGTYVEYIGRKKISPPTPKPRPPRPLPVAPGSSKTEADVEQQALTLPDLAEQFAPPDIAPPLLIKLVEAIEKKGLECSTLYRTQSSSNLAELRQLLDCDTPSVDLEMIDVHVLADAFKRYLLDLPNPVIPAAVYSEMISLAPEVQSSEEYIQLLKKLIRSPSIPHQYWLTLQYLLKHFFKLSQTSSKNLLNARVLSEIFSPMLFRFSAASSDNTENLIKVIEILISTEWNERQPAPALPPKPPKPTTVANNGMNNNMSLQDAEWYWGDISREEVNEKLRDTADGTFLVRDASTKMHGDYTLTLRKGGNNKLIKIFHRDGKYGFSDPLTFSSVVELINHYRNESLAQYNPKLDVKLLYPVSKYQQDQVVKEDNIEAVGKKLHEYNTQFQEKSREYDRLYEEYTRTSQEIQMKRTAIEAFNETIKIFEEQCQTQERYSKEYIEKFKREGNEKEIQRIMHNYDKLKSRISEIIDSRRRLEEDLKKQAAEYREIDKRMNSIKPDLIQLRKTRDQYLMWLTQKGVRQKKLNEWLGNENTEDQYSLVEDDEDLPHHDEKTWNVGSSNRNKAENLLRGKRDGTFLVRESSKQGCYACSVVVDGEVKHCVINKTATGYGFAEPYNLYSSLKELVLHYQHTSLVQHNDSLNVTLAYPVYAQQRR
T1 sequence (O00329 whole entry): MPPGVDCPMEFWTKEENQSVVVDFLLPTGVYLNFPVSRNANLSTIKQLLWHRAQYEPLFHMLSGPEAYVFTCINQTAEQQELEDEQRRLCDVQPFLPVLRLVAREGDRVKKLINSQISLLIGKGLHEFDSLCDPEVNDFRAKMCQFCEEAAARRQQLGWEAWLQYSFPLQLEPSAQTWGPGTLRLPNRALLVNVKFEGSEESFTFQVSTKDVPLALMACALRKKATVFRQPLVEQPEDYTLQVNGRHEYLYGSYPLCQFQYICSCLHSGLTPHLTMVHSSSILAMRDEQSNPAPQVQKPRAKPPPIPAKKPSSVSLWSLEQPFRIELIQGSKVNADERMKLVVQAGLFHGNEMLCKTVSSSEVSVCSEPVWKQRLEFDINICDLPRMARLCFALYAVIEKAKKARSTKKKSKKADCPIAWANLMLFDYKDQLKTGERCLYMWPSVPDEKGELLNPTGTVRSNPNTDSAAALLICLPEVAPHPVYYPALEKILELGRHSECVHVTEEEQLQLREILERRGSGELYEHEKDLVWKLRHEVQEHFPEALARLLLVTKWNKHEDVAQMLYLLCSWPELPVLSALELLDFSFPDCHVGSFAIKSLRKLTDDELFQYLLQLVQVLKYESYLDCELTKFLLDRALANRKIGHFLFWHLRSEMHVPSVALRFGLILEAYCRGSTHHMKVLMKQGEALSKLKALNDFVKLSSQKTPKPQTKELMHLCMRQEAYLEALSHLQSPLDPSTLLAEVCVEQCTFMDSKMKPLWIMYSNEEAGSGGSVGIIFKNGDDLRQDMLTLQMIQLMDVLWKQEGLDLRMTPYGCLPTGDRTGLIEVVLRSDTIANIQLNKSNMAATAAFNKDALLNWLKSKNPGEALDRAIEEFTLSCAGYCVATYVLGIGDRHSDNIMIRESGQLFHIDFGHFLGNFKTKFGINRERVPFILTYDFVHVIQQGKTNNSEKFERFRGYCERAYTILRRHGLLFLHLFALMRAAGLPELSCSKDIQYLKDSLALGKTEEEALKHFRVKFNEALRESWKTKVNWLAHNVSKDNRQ
T1 sequence (P27986 whole entry partner): as the sequence (P27986 whole entry partner) above

With `C=CC(=O)N(CCn1nc(-c2cc(O)cc(F)c2)c2c(N)ncnc21)Cc1ccccc1` [Compound 5, N-(2-(4-amino-3-(3-fluoro-5-hydroxyphenyl)-1H-pyrazolo[3,4-d]pyrimidin-1-yl)ethyl)-N-benzylacrylamide], the IC50 on PI3Kδ [1] stood at 13 nM; against PI3Kβ, 3410 nM; at PI3Kγ, 10500 nM. Besides, the inhibition at 0.3 µM was 45.8% on PI3Kβ, 34.9% on PI3Kγ and 10.2% on ITK. In addition, the inhibition at 0.1 µM at PI3Kδ [2] turned out to be 70.3%.

`C=CC(=O)N(CCn1nc(-c2cc(O)cc(F)c2)c2c(N)ncnc21)Cc1ccc(Cl)cc1` [Compound 12, N-{2-[4-amino-3-(3-fluoro-5-hydroxyphenyl)-1H-pyrazolo[3,4-d]pyrimidin-1-yl]ethyl}-N-[(4-chlorophenyl)methyl]prop-2-enamide] returned a 50% inhibitory concentration (IC50) on PI3Kδ [1] of 9.7 nM. Further, the inhibition at 0.3 µM on PI3Kβ is 31.3%; on PI3Kγ, 21.5%; on ITK, 62.5%. Besides, the inhibition at 0.01 µM on PI3Kδ [2] amounted to 37.7%. In addition, the inhibition at 0.1 µM at PI3Kδ [2] was 66.7%.

Turning to `C=CC(=O)N(CCn1nc(-c2cc(O)c(F)c(F)c2)c2c(N)ncnc21)Cc1ccc(Cl)cc1` [Compound 16, N-{2-[4-amino-3-(3,4-difluoro-5-hydroxyphenyl)-1H-pyrazolo[3,4-d]pyrimidin-1-yl]ethyl}-N-[(4-chlorophenyl)methyl]prop-2-enamide], the IC50 at PI3Kδ [1] was determined as 12.4 nM. Moreover, the inhibition at 0.3 µM on PI3Kβ is 25.2%; on PI3Kγ, 14.6%; on ITK, 8.93%. The inhibition at 0.01 µM on PI3Kδ [2] came to 48.3%. Also, the inhibition at 0.1 µM at PI3Kδ [2] came to 73%.

`C=CC(=O)N(CCn1nc(-c2cc(O)cc(F)c2)c2c(N)ncnc21)Cc1ccccc1F` [Compound 11, N-[2-[4-amino-3-(3-fluoro-5-hydroxy-phenyl)pyrazolo[3,4-d]pyrimidin-1-yl]ethyl]-N-[(2-fluorophenyl)methyl]prop-2-enamide]: at PI3Kδ [1], the IC50 is 32 nM. Also, the inhibition at 1 µM at PI3Kδ [1] was 82.4%. In addition, the inhibition at 0.3 µM is 41% at PI3Kβ, 21.4% on PI3Kγ and 34.7% at ITK. Moreover, the inhibition at 0.1 µM on PI3Kδ [2] is 54.2%.

As for `C=CC(=O)N(CCn1nc(-c2cc(O)cc(F)c2)c2c(N)ncnc21)Cc1ccc(F)cc1` [Compound 10, N-{2-[4-amino-3-(3-fluoro-5-hydroxyphenyl)-1H-pyrazolo [3,4-d]pyrimidin-1-yl]ethyl}-N-[(4-fluorophenyl)methyl]prop-2-enamide], on PI3Kδ [1], the IC50 is 12.8 nM. For the same compound, at PI3Kδ [1], the inhibition at 1 µM came out at 89%. The inhibition at 0.3 µM on PI3Kβ was 16.3%; at PI3Kγ, -3.88%; on ITK, 30.5%. The inhibition at 0.1 µM at PI3Kδ [2] was found to be 67.2%.

For the compound `Nc1ncnc2c1c(-c1cc(O)cc(F)c1)nn2CCNc1ccccc1` [Compound 1, 3-(4-amino-1-(2-(phenylamino)ethyl)-1H-pyrazolo [3,4-d]pyrimidin-3-yl)-5-fluorophenol], the IC50 amounted to 10 nM on PI3Kδ [1] and 55.1 ± 38.3 nM in experiment [3]. Further, the inhibition at 0.3 µM was 62% on PI3Kβ, 49.7% on PI3Kγ and 0.06% on ITK.

Regarding `C=CC(=O)N(CCn1nc(-c2cc(O)cc(F)c2)c2c(N)ncnc21)c1ccccc1` [Compound 2, N-(2-(4-amino-3-(3-fluoro-5-hydroxyphenyl)-1H-pyrazolo[3,4-d]pyrimidin-1-yl)ethyl)-N-phenylacrylamide], the IC50 on PI3Kδ [1] came to 51.6 nM; against PI3Kβ, 5280 nM; against PI3Kγ, 9070 nM. For the same compound, the inhibition at 0.3 µM is 30.4% on PI3Kβ, -2.49% at PI3Kγ and 50.7% at ITK. In addition, the inhibition at 0.1 µM on PI3Kδ [2] was 39.1%.
